Patent US5070210A, “Novel ketenimines as intermediates for insecticides” (ICI Americas Inc., priority 1990, dated 1991)

How the values were obtained:
Format in all cases: in vivo
[1] = test system: Maize weevil [Sitophilus Zeamais (Motschulsky)]; experiment: Maize weevil insecticidal test; conditions: adult weevils, percent in solution; 48 hours
Description: The compounds in Tables 1 and 2 above were tested for insecticidal activity using the following testing procedures. LC50 values, based on the results of these tests and calculated according to dosage-mortality curves, are expressed in Table 3.
Maize weevil [Sitophilus Zeamais (Motschulsky)]:
Test compounds were diluted in a 50:50 acetone:water solution. Four corn seeds [Zea mays (L.)] which had been immersed in test solutions for 2-3 seconds and allowed to dry were placed in containers together with 10 adult weevils. The containers were covered and kept at a temperature of about 25° C. Mortality was recorded after 48 hours. Test concentrations ranged from 0.01% down to that at which 50% mortalilty occurred. The LC50 values are expressed below in Table 3 under the heading "MW" in terms of percent of the test compound in solution.

[2] = test system: Cabbage Looper [Trichoplusia ni (Hubner)]; experiment: Cabbage looper insecticidal test; conditions: second-instar larvae, percent in solution; 3-5 days
In short: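 LC50 values, given as percent test compound in solution, were calculated from dosage-mortality curves. Squash cotyledons were immersed 2-3 s in acetone-water (50-50) dilutions starting at 0.1%, dried on a screen, then infested with five second-instar larvae. Mortality was read 3-5 days on.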

[3] = test system: Tobacco Budworm [Heliothis virescens (Fabricius)] eggs; experiment: Tobacco budworm egg test; conditions: 2-day old eggs, percent in solution
In short: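 2-day eggs on paper towel, acetone dip, 0.1% and below; petri dish with larval diet, 78° F. Mortality read after control hatch and larval feeding. LC50 = % compound in solution, from dose-mortality curve.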

[4] = test system: Housefly [Musca domestica]; experiment: Housefly insecticidal test; conditions: μg per 25 female flies; mortality after 48 hours
In short: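 Acetone solutions (with 0.01% peanut oil) dried onto dish bottoms, then 25 female flies, 1-2 days old, caged over the residue with sugar water. Mortality scored at 48 hours; LC50 from dosage-mortality curves, in μg per 25 female flies, top level 100 μg.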

SMILES | LC50, MW [1] [%] | LC50, CL [2] [%] | LC50, TBW, E (TBW-E) [3] [%] | LC50, HF [4] [µg]
CC(C)C(=Nc1cccc(I)c1)OCc1cccc(Oc2ccc(Cl)cc2)c1 [Compound 389] | > 0.01 | 0.00069 | > 0.1 | < 100
CC(C)C(=Nc1cccc(Cl)c1)OCc1ccc(F)c(Oc2ccc(Cl)cc2)c1 [Compound 390] | > 0.01 | 0.0021 | 0.045 | < 100
CC(C)C(=Nc1ccc(C#N)cc1)OCc1ccc(F)c(Oc2ccc(Cl)cc2)c1 [Compound 392] | > 0.01 | 0.00034 | 0.039 | < 100
CC(C)C(=Nc1ccc(C#N)cc1)OCc1cccc(Oc2ccc(Cl)cc2)c1 [Compound 393] | > 0.01 | 0.00037 | > 0.1 | < 100
CC(C)C(=Nc1ccc(C#N)cc1)OCc1ccc(F)c(Oc2ccc(F)cc2)c1 [Compound 394] | > 0.01 | 0.00025 | 0.05 | < 100
CC(C)C(=Nc1ccc(F)c(Cl)c1F)OCc1ccc(F)c(Oc2ccc(Cl)cc2)c1 [Compound 395] | 0.004 | < 0.1 | 0.018 | 8.6
Cc1cc(N=C(OCc2ccc(F)c(Oc3ccc(F)cc3)c2)C(C)C)ccc1F [Compound 396] | > 0.01 | 0.0017 | < 0.1 | < 100
Cc1cc(N=C(OCc2cccc(Oc3ccc(Cl)cc3)c2)C(C)C)ccc1F [Compound 397] | > 0.01 | 0.0019 | < 0.1 | < 100
CC(C)C(=Nc1ccc(F)c(Br)c1)OCc1cccc(Oc2ccc(Cl)cc2)c1 [Compound 398] | > 0.01 | < 0.1 | < 0.1 | < 100
Cc1cc(N=C(OCc2ccc(F)c(Oc3ccc(Cl)cc3)c2)C(C)C)ccc1F [Compound 399] | > 0.01 | 0.0012 | 0.025 | < 100
Cc1cc(N=C(OCc2ccc(F)c(Oc3ccccc3)c2)C(C)C)ccc1F [Compound 400] | > 0.01 | 0.0007 | 0.025 | < 100
Cc1cccc(N=C(OCc2ccc(F)c(Oc3ccc(Cl)cc3)c2)C(C)C)c1 [Compound 401] | > 0.01 | 0.0017 | 0.04 | < 100
Cc1ccc(N=C(OCc2cccc(Oc3ccc(F)cc3)c2)C(C)C)cc1Cl [Compound 402] | > 0.01 | > 0.1 | > 0.1 | < 100
Cc1ccc(N=C(OCc2cccc(Oc3ccc(Cl)cc3)c2)C(C)C)cc1Cl [Compound 403] | > 0.01 | > 0.1 | > 0.1 | < 100
Cc1ccc(N=C(OCc2ccc(F)c(Oc3ccc(Cl)cc3)c2)C(C)C)cc1Cl [Compound 404] | > 0.01 | > 0.1 | 0.025 | < 100
Cc1cccc(N=C(OCc2cccc(Oc3ccc(F)cc3)c2)C(C)C)c1 [Compound 405] | > 0.01 | > 0.1 | > 0.1 | < 100

SMILES | LC50, MW [1] [%] | LC50, CL [2] [%] | LC50, TBW, E (TBW-E) [3] [%] | LC50, HF [4] [µg]
Cc1ccc(N=C(OCc2ccc(F)c(Oc3ccc(Cl)cc3)c2)C(C)C)cc1C [Compound 406] | > 0.01 | > 0.1 | < 0.1 | < 100
Cc1cc(N=C(OCc2ccc(F)c(Oc3ccc(Cl)cc3)c2)C(C)C)ccc1Br [Compound 407] | > 0.01 | > 0.1 | 0.05 | > 100
COc1ccc(N=C(OCc2ccc(F)c(Oc3ccc(F)cc3)c2)C(C)C)cc1Cl [Compound 408] | > 0.01 | 0.0015 | 0.02 | < 100
COc1ccc(N=C(OCc2ccc(F)c(Oc3ccccc3)c2)C(C)C)cc1Cl [Compound 409] | > 0.01 | 0.0017 | 0.025 | < 100
COc1ccc(N=C(OCc2ccc(F)c(Oc3ccc(Cl)cc3)c2)C(C)C)cc1Cl [Compound 410] | > 0.01 | > 0.1 | > 0.1 | < 100
CCc1ccccc1N=C(OCc1cccc(Oc2ccc(F)cc2)c1)C(C)C [Compound 411] | > 0.01 | > 0.1 | > 0.1 | < 100
COc1ccc(N=C(OCc2ccc(F)c(Oc3ccc(Cl)cc3)c2)C(C)C)cc1 [Compound 412] | > 0.01 | > 0.1 | > 0.1 | < 100
CC(C)C(=Nc1ccc(F)c(I)c1)OCc1cccc(Oc2ccc(Cl)cc2)c1 [Compound 413] | > 0.01 | 0.0007 | 0.04 | < 100
CC(C)C(=Nc1ccc(S(C)(=O)=O)cc1)OCc1ccc(F)c(Oc2ccc(F)cc2)c1 [Compound 414] | > 0.01 | 0.0024 | > 0.1 | < 100
C=C(C)C(=Nc1ccc(F)c(Cl)c1)OCc1ccc(F)c(Oc2ccc(Cl)cc2)c1 [Compound 415] | > 0.01 | 0.00075 | 0.035 | < 100
C=C(C)C(=Nc1ccc(F)c(Cl)c1)OCc1ccc(F)c(Oc2ccccc2)c1 [Compound 416] | > 0.01 | 0.00027 | 0.018 | < 100
C=C(C)C(=Nc1ccc(F)c(Cl)c1)OCc1cccc(Oc2ccccc2)c1 [Compound 417] | > 0.01 | 0.0008 | 0.04 | < 100
CC(C)C(=Nc1ccc(OC(F)(F)C(F)Cl)cc1)OCc1cccc(Oc2ccccc2)c1 (stereo not shown) [Compound 418] | > 0.01 | > 0.1 | > 0.1 | > 100
CC(C)C(=Nc1ccc(OC(F)(F)C(F)Cl)cc1)OCc1ccc(F)c(Oc2ccccc2)c1 (stereo not shown) [Compound 419] | > 0.01 | > 0.1 | > 0.1 | > 100
CC(C)C(=Nc1ccc(OCC(F)(F)F)c(Cl)c1)OCc1cccc(Oc2ccc(F)cc2)c1 [Compound 420] | > 0.01 | 0.00075 | 0.05 | > 100
